Results on three compounds are retold here after patent US7563799B2, “Substituted pyrazolo[3,4-D]pyrimidines as p38 map kinase inhibitors” (Roche Palo Alto LLC, priority 2005, dated 2009).

The target in one data set is T1, p38 MAP kinase (Homo sapiens, UniProt Q16539).
T1 construct: made in house; host or cells: E. coli (co-expressed with SEK-1 and MEKK)
The data set is described as follows: p38 (MAP) kinase in vitro assay (transfer of γ-33P from ATP to Myelin Basic Protein). The format is biochemical. The note with it: phosphorylated recombinant p38 MAP kinase, MBP substrate, γ-33P-ATP, 30° C. How it is done:
This example illustrates a p38 (MAP) kinase in vitro assay useful for evaluating the compounds of the invention.
The p38 MAP kinase inhibitory activity of compounds of this invention in vitro was determined by measuring the transfer of the γ-phosphate from γ-^33P-ATP by p-38 kinase to Myelin Basic Protein (MBP), using a minor modification of the method described in Ahn, et al., J. Biol. Chem. 266:4220-4227 (1991).
The phosphorylated form of the recombinant p38 MAP kinase was co-expressed with SEK-1 and MEKK in E. Coli (see, Khokhlatchev, et al., J. Biol. Chem. 272:11057-11062 (1997)) and then purified by affinity chromatography using a Nickel column.
The phosphorylated p38 MAP kinase was diluted in kinase buffer (20 mM 3-(N-morpholino)propanesulfonic acid, pH 7.2, 25 mM β-glycerol phosphate, 5 mM ethylene glycol-bis(beta-aminoethyl ether)-N,N,N′,N′-tetraacetic acid, 1 mM sodium ortho-vanadate, 1 mM dithiothreitol, 40 mM magnesium chloride). Test compound dissolved in DMSO or only DMSO (control) was added and the samples were incubated for 10 min at 30° C. The kinase reaction was initiated by the addition of a substrate cocktail containing MBP and γ-^33P-ATP. […] The phosphorylated MBP was then separated from the residual γ-^33P-ATP using a phosphocellulose membrane (Millipore, Bedfrod, Mass.) and quantitated using a scintillation counter (Packard, Meriden, Conn.).

T1 sequence (Q16539 whole entry): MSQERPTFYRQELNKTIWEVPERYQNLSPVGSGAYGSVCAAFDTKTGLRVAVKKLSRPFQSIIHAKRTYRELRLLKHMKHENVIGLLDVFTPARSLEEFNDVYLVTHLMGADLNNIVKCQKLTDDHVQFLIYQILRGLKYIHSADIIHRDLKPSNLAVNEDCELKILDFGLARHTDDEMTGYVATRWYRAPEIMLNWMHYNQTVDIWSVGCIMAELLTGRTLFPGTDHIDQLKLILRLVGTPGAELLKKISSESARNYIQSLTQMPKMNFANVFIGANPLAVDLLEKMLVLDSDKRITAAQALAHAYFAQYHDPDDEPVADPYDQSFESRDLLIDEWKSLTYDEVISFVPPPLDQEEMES

In turn, `CS(=O)(=O)c1ccc(Cl)c(-c2n[nH]c3nc(Oc4ccc(F)cc4F)ncc23)c1` [Compound 2, 3-(2-Chloro-5-methanesulfonyl-phenyl)-6-(2,4-difluoro-phenoxy)-1H-pyrazolo[3,4-d]pyrimidine] displayed a melting point of 251.6 to 252.2 °C.

Regarding `CS(=O)(=O)c1ccc(Cl)c(-c2n[nH]c3nc(Oc4ccc(F)cc4F)nc(NC(CO)CO)c23)c1` [Compound 4, 2-[3-(2-Chloro-5-methanesulfonyl-phenyl)-6-(2,4-difluoro-phenoxy)-1H-pyrazolo[3,4-d]pyrimidin-4-ylamino]-propane-1,3-diol], the IC50 on p38 MAP kinase was roughly 2 nM.

As to `Cc1ccc(S(C)(=O)=O)cc1-c1n[nH]c2nc(Oc3ccc(F)cc3F)ncc12` [Compound 5, 6-(2,4-Difluoro-phenoxy)-3-(5-methanesulfonyl-2-methyl-phenyl)-1H-pyrazolo[3,4-d]pyrimidine], the melting point was 133 to 135 °C.

The melting point is the temperature of the solid-liquid transition. As a reminder, the IC50 is the point on the concentration scale where inhibition reaches its midpoint.
